Measured values as given in patent publication US9610236B2, “Cosmetic use of Queuine” (AMABIOTICS, priority 2013, dated 2017).
Entries after “also recorded” stand apart in the source; their conditions may differ.

Experiments:
Type in all cases: cell-based
[1] = system: HDFa, adult human dermal fibroblasts; test: Cell proliferation, BrdU assay; details: for Mean ODs (BrdU cell proliferation): OD 450 nm
Method: (§1) The stock solution of queuine was prepared with 15 mg/ml methanol and the dilutions were obtained in DMEM (Dulbecco's Modified […]) in the presence of variable concentrations of foetal calf serum (FCS) (DMEM+2.5% FCS+antibiotics (penicillin/streptomycin)+glutamine): depleted medium with 2.5% FCS for the viability, proliferation and cell migration experiments.
This first assay allowed fine-tuning of the applied concentration range. The dilution range for the assay of cell proliferation kinetics was as follows:
(§2) Cell type: HDFa, adult human dermal fibroblasts, person, used between passage 4 and passage 6.
(§3) The adult HDFs used were seeded to a proportion of 5×10^3 cells/well in 96-well plates (passage 4) in 200 μl culture medium without FCS (supplemented DMEM+0% FCS). 24 h after seeding, the culture medium was changed and the different dilutions of the product or its carrier (methanol) were added at 200 μl per well, with 3 wells per culture condition.
Cell proliferation was evaluated using an assay of ELISA type (BrdU assay, Bromodeoxyuridine) after 1, 2 and 3 days of culture.
BrdU is a synthetic nucleoside and an analogue of thymidine, which can be recognised by an anti-BrdU antibody. It is incorporated during DNA replication of the proliferating cells. The anti-BrdU antibody is coupled to an enzyme which, in the presence of its substrate, will degrade the latter. Detection of BrdU is therefore carried out by colorimetric enzymatic assay.
Degradation of the enzyme substrate will stain the supernatant proportional to the amount of incorporated BrdU. Measurement is then performed by read-out of optical density (OD) using a spectrophotometer at a wavelength of 450 nm. The assay was conducted at D1, D2 and D3 (D0 corresponding to the time of addition of the solutions to be assayed).

[2] = system: HDFa, adult human dermal fibroblasts; test: Cytotoxicity / cell viability, MTT assay; details: for Mean - blank (cell viability OD) / OD mean values (cell viability) / Mean OD values (cell viability): MTT; for OD mean values (cell viability) / Mean OD values (cell viability): OD 570 nm; for OD mean values (cell viability): DMEM 2.5% FCS
Method: as §1
The dilution range prepared for the toxicity/viability assay was the following:
as §2, §3
Cell proliferation was evaluated using a colorimetric assay (MTT assay) after culture times of 1, 2 and 3 days. This assay is based on reduction of the yellow tetrazolium salt (MTT) [3-(4,5-dimethylthiazol bromide] to a blue-purple formazan product by the mitochondrial NADPH reductases of the cells, provided they are living. The crystals were then dissolved in 100% ethanol—DMSO mixture (v/v). Colouring of the supernatant, proportional to the number of living cells, was measured by optical density (OD) read-out on a spectrophotometer at a wavelength of 570 nm. The assay was conducted at D1, D2 and D3 (D0 corresponding to the time of addition of the solutions to be assayed).
The mean OD values of the triplicates are given on a graph for each kinetic time. Standard deviations are indicated.

[3] = system: HDFa, adult human dermal fibroblasts; test: Cell migration into calibrated acellular gap (culture inserts, image comparison); details: 24 h
Method: The dilution range prepared for evaluating migration was identical to the range for evaluating kinetics with the exclusion of the 0.3 μg/ml concentration. The adult HDFs used were seeded in the presence of previously sterilised culture inserts which allowed the creation of calibrated acellular regions. 100,000 HDFa in 600 μl and 30,000 cells in 150 μl were respectively added outside and inside the inserts, in DMEM+2.5% FCS. After an incubation time of 5 h at 37° C., the inserts were removed and the wells washed twice with PBS 1× to eliminate every cell which had not adhered. The queuine molecule was then added at 30, 10, 3 or 1 μg/ml in DMEM 2.5% FCS, and an equivalent range of methanol was also carried out, two wells per condition. The wells were photographed at t=0 h and the plates then incubated for 24 h. The cells were fixed with paraformaldehyde before taking photos at 24 h. The images were analysed using ImageJ software, to improve the contrast thereof. All fields were examined and the two most representative of each condition were chosen for each time indication. Analysis was performed by comparison with the control. The adult HDFs were seeded in the presence of previously sterilised culture inserts, to create calibrated acellular regions in a confluent cell mat. The cells tend to fill the gap created by migrating from the edges to close the gap. After 5 h incubation at 37° C., the inserts were removed and the wells washed twice in PBS 1× to eliminate every non-adhering cell. Queuine was then added at 30, 10, 3 or 1 μg/ml in DMEM 2.5% FCS and an equivalent range of methanol was also prepared, two wells per condition. Photos of the wells were taken at t=0 h. The cells were cultured 24 h at 37° C., before being fixed in paraformaldehyde. Photos were taken at t=24 h. The photos were compared with each other to assess the difference in cell migration into the gap between the different assayed conditions.

Nc1nc2[nH]cc(CN[C@H]3C=C[C@H](O)[C@@H]3O)c2c(=O)[nH]1 [Queuine, 2-amino-5-((((1s,4s,5r)-4,5-dihydroxy-2-cyclopenten-1-yl)amino)methyl)-1,7-dihydro-4h-pyrrolo(2,3-d)pyrimidin-4-one]
Mean - blank (BrdU OD) ([1]; 0.3 μg/ml, 24 h contact time): 1.181
Mean ODs (BrdU cell proliferation) ([1]; 0.3 μg/ml, 24 h contact time, DMEM 2.5% FCS): 1.312
Mean - blank (BrdU OD) ([1]; 0.3 μg/ml, 48 h contact time): 0.677
Mean ODs (BrdU cell proliferation) ([1]; 0.3 μg/ml, 48 h contact time, shortened substrate incubation): 0.800
Mean - blank (BrdU OD) ([1]; 0.3 μg/ml, 72 h contact time): 0.416
Mean ODs (BrdU cell proliferation) ([1]; 0.3 μg/ml, 72 h contact time, shortened substrate incubation): 0.586
Mean - blank (BrdU OD) ([1]; 1 μg/ml, 24 h contact time): 1.197
Mean ODs (BrdU cell proliferation) ([1]; 1 μg/ml, 24 h contact time, DMEM 2.5% FCS): 1.328
Mean - blank (BrdU OD) ([1]; 1 μg/ml, 48 h contact time): 0.803
Mean ODs (BrdU cell proliferation) ([1]; 1 μg/ml, 48 h contact time, shortened substrate incubation): 0.926
Mean - blank (BrdU OD) ([1]; 1 μg/ml, 72 h contact time): 0.378
Mean ODs (BrdU cell proliferation) ([1]; 1 μg/ml, 72 h contact time, shortened substrate incubation): 0.548
Mean - blank (BrdU OD) ([1]; 3 μg/ml, 24 h contact time): .391
Mean ODs (BrdU cell proliferation) ([1]; 3 μg/ml, 24 h contact time, DMEM 2.5% FCS): 1.522
Mean - blank (BrdU OD) ([1]; 3 μg/ml, 48 h contact time): 0.793
Mean ODs (BrdU cell proliferation) ([1]; 3 μg/ml, 48 h contact time, shortened substrate incubation): 0.915
Mean - blank (BrdU OD) ([1]; 3 μg/ml, 72 h contact time): 0.511
Mean ODs (BrdU cell proliferation) ([1]; 3 μg/ml, 72 h contact time, shortened substrate incubation): 0.681
Mean - blank (BrdU OD) ([1]; 10 μg/ml, 24 h contact time): 1.494
Mean ODs (BrdU cell proliferation) ([1]; 10 μg/ml, 24 h contact time, DMEM 2.5% FCS): 1.625
Mean - blank (BrdU OD) ([1]; 10 μg/ml, 48 h contact time): 0.943
Mean ODs (BrdU cell proliferation) ([1]; 10 μg/ml, 48 h contact time, shortened substrate incubation): 1.066
Mean - blank (BrdU OD) ([1]; 10 μg/ml, 72 h contact time): 0.538
Mean ODs (BrdU cell proliferation) ([1]; 10 μg/ml, 72 h contact time, shortened substrate incubation): 0.708
Mean - blank (BrdU OD) ([1]; 30 μg/ml, 24 h contact time): 1.502
Mean ODs (BrdU cell proliferation) ([1]; 30 μg/ml, 24 h contact time, DMEM 2.5% FCS): 1.634
Mean - blank (BrdU OD) ([1]; 30 μg/ml, 48 h contact time): 1.026
Mean ODs (BrdU cell proliferation) ([1]; 30 μg/ml, 48 h contact time, shortened substrate incubation): 1.149
Mean - blank (BrdU OD) ([1]; 30 μg/ml, 72 h contact time): 0.787
Mean ODs (BrdU cell proliferation) ([1]; 30 μg/ml, 72 h contact time, shortened substrate incubation): 0.958
proliferative effect ([1]; 3, 10 and 30 μg/ml after 72 hours' incubation): a proliferative effect is evidenced
proliferative effect ([1]; 72 hours, 30 μg/ml): particularly pronounced; also recorded: major proliferative effect
proliferative effect ([1]; 72 hours, 3 and 10 μg/ml): clear proliferative effect
proliferative effect compared with the carrier ([1]; short times (24 and 48 hours)): no significant effect
Mean - blank (cell viability OD) ([2]; 0.1 μg/ml, 24 h contact time): 0.133
OD mean values (cell viability) ([2]; 0.1 μg/ml, 24 h contact time): 0.228
Mean - blank (cell viability OD) ([2]; 0.1 μg/ml, 48 h contact time): 0.219
Mean OD values (cell viability) ([2]; 0.1 μg/ml, 48 h contact time): 0.304
Mean - blank (cell viability OD) ([2]; 0.1 μg/ml, 72 h contact time): 0.223
Mean OD values (cell viability) ([2]; 0.1 μg/ml, 72 h contact time): 0.341
Mean - blank (cell viability OD) ([2]; 1 μg/ml, 24 h contact time): 0.155
OD mean values (cell viability) ([2]; 1 μg/ml, 24 h contact time): 0.250
Mean - blank (cell viability OD) ([2]; 1 μg/ml, 48 h contact time): 0.246
Mean OD values (cell viability) ([2]; 1 μg/ml, 48 h contact time): 0.331
Mean - blank (cell viability OD) ([2]; 1 μg/ml, 72 h contact time): 0.244
Mean OD values (cell viability) ([2]; 1 μg/ml, 72 h contact time): 0.362
Mean - blank (cell viability OD) ([2]; 10 μg/ml, 24 h contact time): 0.151
OD mean values (cell viability) ([2]; 10 μg/ml, 24 h contact time): 0.246
Mean - blank (cell viability OD) ([2]; 10 μg/ml, 48 h contact time): 0.243
Mean OD values (cell viability) ([2]; 10 μg/ml, 48 h contact time): 0.328
Mean - blank (cell viability OD) ([2]; 10 μg/ml, 72 h contact time): 0.277
Mean OD values (cell viability) ([2]; 10 μg/ml, 72 h contact time): 0.395
Mean - blank (cell viability OD) ([2]; 100 μg/ml, 24 h contact time): 0.138
OD mean values (cell viability) ([2]; 100 μg/ml, 24 h contact time): 0.233
Mean - blank (cell viability OD) ([2]; 100 μg/ml, 48 h contact time): 0.188
Mean OD values (cell viability) ([2]; 100 μg/ml, 48 h contact time): 0.273
Mean - blank (cell viability OD) ([2]; 100 μg/ml, 72 h contact time): 0.154
Mean OD values (cell viability) ([2]; 100 μg/ml, 72 h contact time): 0.272
cytotoxic effect ([2]; 100 μg/ml, at 48 h): exhibited a cytotoxic effect
cytotoxic effect ([2]; concentrations below 100 μg/ml): do not exhibit any cytotoxic effect; also recorded: did not display any cytotoxic effect
migration compared with 2.5% FCS control ([3]; 10 μg/ml and 30 μg/ml in 2.5% FCS): better migration than in 2.5% FCS
effect on migration of the fibroblasts ([3]; 10 μg/ml): has an effect on migration of the fibroblasts; also recorded: has an effect on the migration of adult HDFs
gap closure (observation of photos) ([3]; 30 μg/ml in 2.5% FCS): the cells of the two edges meet in the centre of the gap
effect on migration of the fibroblasts ([3]; 30 μg/ml): confirmed
migration compared with positive 10% FCS control ([3]; 10 and 30 μg/ml): equivalent to that obtained with the positive 10% FCS control
